According to patent publication US11154529B2, “Phosphaplatin liquid formulations” (Phosplatin Therapeutics Inc., priority 2016, dated 2021):

Assay: Ready-to-use formulation stability at 2-8° C., 5 mg/mL (R,R)-pyrodach-2 in 10 mM Potassium Phosphate Buffer at pH 7.2, 10 mL vials
Type: physicochemical
Method: A scalable and commercially viable process for the manufacture of a ready-to-use formulation of (R,R)-pyrodach-2 in 10 mM buffer adjusted to a pH of 7.0-7.5 comprises the steps of: a) preparing a 10 mM aqueous solution of buffer; b) adding sufficient hydroxide base to effect neutralization of the added (R,R)-pyrodach-2 to reach a pH of about 7; c) adding (R,R)-pyrodach-2 and allowing it to dissolve; d) if necessary adding additional hydroxide to adjust the pH into a range of about 7.0-7.5; and e) filtering the solution under sterile conditions, filling the solution into glass vials, and covering it with a stopper and/or a cap. Stability data on two large batches of 5 mg/mL (R,R)-pyrodach-2 in 10 mM potassium phosphate buffer were generated. One such batch at pH=7.2 was evaluated at both 25° C./60% RH and refrigerated (2-8° C.) conditions, with data summarized in Table 4 and Table 5, respectively. […] Similar observations have been made for the ready-to-use liquid formulation at pH7.4, as illustrated in Table 6 and Table 7.
• Transfer 4564.6 mg±0.5 mg of potassium phosphate dibasic, trihydrate to a 2-L volumetric flask. • Fill flask to approximately 75% volume with water, swirl as needed to dissolve all solids. • Volumetrically transfer 32.0 mL of 1N KOH to flask. • Dilute flask to volume with water and mix well. • Record pH of final solution. This is the diluent. • Transfer 7653.1 mg±0.5 mg of (R,R)-pyrodach-2 to a compounding vessel. • Transfer 1500 mL of the diluent to the vessel and stir to dissolve solids. • Record pH of final solution. • Pass entire solution through a 0.22 μm sterile filter membrane into a sterile collection vessel. • Calculate (R,R)-pyrodach-2 solution concentration
To a […] glass beaker equipped with mechanical mixer was add 24645.5 g of sterile water for injection. With agitation 47.03 gm of dibasic potassium phosphate USP was added and the solids allowed to dissolve. To the stirred solution was added 253.8 gm of 1.00 N potassium hydroxide. Sterile water for injection USP (900.0 gm) was used as a rinse to facilitate both additions. With vigorous agitation, (R,R)-pyrodach-2 (201.87 gm) was slowly added and agitation continued until all of the solids dissolved. Sterile water for injection USP (900.0 gm) was used as a rinse to facilitate the addition. The pH was determined to be 6.7. A total of 85 mL of 1.00 N potassium hydroxide was added in 5.0 mL aliquots to adjust the pH to 7.3. The solution was sterile filtered through 0.22μ Millipore Millipack filter and aseptically filled, 10 ml top a vial in 10 mL in 10 cc Wheaton clear molded vails, stoppered with a 20 mm stopper and crimp seal capped.

SMILES: O=P1(O)OP(=O)(O)[O][Pt]2([NH][C@@H]3CCCC[C@H]3[NH]2)[O]1 (stereo partly drawn) [(R,R)-pyrodach-2, (R,R)-trans-1,2-cyclohexanediamine-(dihydrogenpyrophosphato)platinum(II)]
- (DACH) Pt-diaquo (~RRT 0.3) (1 Month): 0.17%
- (DACH) Pt-monoaquo (~RRT 0.7) (1 Month): 0.84%
- Assay (Potency) (1 Month): 97.7%
- PT-112 Dimer (~RRT 4.0) (1 Month): 0.21%
- RRT 0.56 (1 Month): 0.11%
- Total Related Substances (1 Month): 1%
- pH (1 Month): 7.2
- (DACH) Pt-diaquo (~RRT 0.3) (2 Month): 0.09%
- (DACH) Pt-monoaquo (~RRT 0.7) (2 Month): 0.91%
- Assay (Potency) (2 Month): 100.1%
- PT-112 Dimer (~RRT 4.0) (2 Month): 0.25%
- RRT 0.56 (2 Month): 0.10%
- RRT 0.68 (2 Month): 0.06%
- Total Related Substances (2 Month): 1%
- pH (2 Month): 7.2
- (DACH) Pt-diaquo (~RRT 0.3) (3 Month): 0.18%
- (DACH) Pt-monoaquo (~RRT 0.7) (3 Month): 0.82%
- Assay (Potency) (3 Month): 98.2%
- PT-112 Dimer (~RRT 4.0) (3 Month): 0.31%
- RRT 0.56 (3 Month): 0.12%
- RRT 0.68 (3 Month): 0.05%
- RRT 3.1-3.2 (3 Month): 0.08%
- Total Related Substances (3 Month): 2%
- pH (3 Month): 7.2
- (DACH) Pt-diaquo (~RRT 0.3) (4 Month): 0.13%
- (DACH) Pt-monoaquo (~RRT 0.7) (4 Month): 0.88%
- Assay (Potency) (4 Month): 98.6%
- PT-112 Dimer (~RRT 4.0) (4 Month): 0.27%
- RRT 0.50 (4 Month): 0.05%
- RRT 0.56 (4 Month): 0.13%
- RRT 3.1-3.2 (4 Month): 0.07%
- Total Related Substances (4 Month): 2%
- pH (4 Month): 7.3
- (DACH) Pt-diaquo (~RRT 0.3) (6 Month): 0.18%
- (DACH) Pt-monoaquo (~RRT 0.7) (6 Month): 0.91%
- Assay (Potency) (6 Month): 98.4%
- PT-112 Dimer (~RRT 4.0) (6 Month): 0.28%
- RRT 0.56 (6 Month): 0.12%
- RRT 0.68 (6 Month): 0.05%
- RRT 3.1-3.2 (6 Month): 0.10%
- Total Related Substances (6 Month): 2%
- pH (6 Month): 7.3
- Particulate Matter (Light Obscuration) (6 Month, first value): 150 particles per container
- Particulate Matter (Light Obscuration) (6 Month, second value): 8 particles particles per container
- (DACH) Pt-diaquo (~RRT 0.3) (9 Month): 0.14%
- (DACH) Pt-monoaquo (~RRT 0.7) (9 Month): 1.05%
- Assay (Potency) (9 Month): 97.8%
- PT-112 Dimer (~RRT 4.0) (9 Month): 0.29%
- RRT 0.56 (9 Month): 0.16%
- RRT 0.68 (9 Month): 0.06%
- RRT 3.1-3.2 (9 Month): 0.10%
- Total Related Substances (9 Month): 2%
- pH (9 Month): 7.2
- (DACH) Pt-diaquo (~RRT 0.3) (12 Month): 0.20%
- (DACH) Pt-monoaquo (~RRT 0.7) (12 Month): 1.02%
- Assay (Potency) (12 Month): 97.8%
- PT-112 Dimer (~RRT 4.0) (12 Month): 0.29%
- RRT 0.50 (12 Month): 0.06%
- RRT 0.56 (12 Month): 0.16%
- RRT 0.68 (12 Month): 0.10%
- RRT 3.1-3.2 (12 Month): 0.16%
- Total Related Substances (12 Month): 2%
- pH (12 Month): 7.2
- Particulate Matter (Light Obscuration) (12 Month, first value): 236 particles per container
- Particulate Matter (Light Obscuration) (12 Month, second value): 4 particles particles per container
- (DACH) Pt-diaquo (~RRT 0.3) (15 Month): 0.15%
- (DACH) Pt-monoaquo (~RRT 0.7) (15 Month): 0.92%
